Measurements taken from patent EP2177216A1, “Use of dianhydrohexite mononitrate derivatives as healing agents” (LACER, S.A., priority 2008, dated 2010).

System: full thickness wound (2 x 2 cm)
Experiment: Wound healing (wound contraction and re-epithelialization) after topical hydrogel application to a full thickness skin wound in rats
Assay type: in vivo, Male Wistar rats
Protocol: Male Wistar rats provided by Janvier, Espana weighing 150 - 200 g were housed in our animal facilities in groups of 3 animals, being each group in a conventional animal facility where the environmental temperature and relative humidity are monitored and controlled. The lighting schedule in the animal facility is 12 hours light and 12 hours dark. The rats were used after an acclimatization period of five days. After a week quarantine period animals were dosed.
The solutions were allowed to attain dissolution equilibrium for a period of 8 h. The appropriate amount of compound of formula (I) was added to the hydrogel solution for homogenization. […] The hydrogels were used immediately after preparation.
Rats were anesthetized with sodium pentobarbital (40 mg/kg, i.p.) before treatments application to keep the animal calm to allow absorption of the products.
The dorsal surface was shaved and a full thickness wound (2 x 2 cm) was made on the back of each rat by removing the skin (epidermis and dermis) and exposing paniculus carnosus.
Groups of 5 rats for treatment were used, and 0.5 g of hydrogel was topically applied in a wound (2 x 2 cm) on the back of each rat.
Treatments were applied from the first day until fourth day after wounding. […] From the fifth day post-wounding, lesions were left uncovered in all groups. The animals were housed in individual cages with free access to food and water. […]
The area of the wounds (cm^2) and % re-ephitelización were estimated by the difference between the total lesion area and the wound area still uncovered.
The efficacy of treatments was evaluated by measuring wound area and percentage of re-epithelialization vs total wound area.

[1] = day 5, 0.5 g of hydrogel topically applied from first until fourth day after wounding, groups of 5 rats
[2] = day 8, 0.5 g of hydrogel topically applied from first until fourth day after wounding, initial wound 2 x 2 cm
[3] = versus control hydrogel, from wound area at day 8

| Compound | % Re-epithelialization (day 5) [1] [%] | Wound area (cm^2) (day 8) [2] | % Wound reduction vs control [3] [%] | % Re-epithelialization (day 5) (rat, in vivo) [%] | % Wound reduction vs control (rat, in vivo) [%] | Wound area (cm^2) (day 8) (rat, in vivo) |
| --- | --- | --- | --- | --- | --- | --- |
| O=[N+]([O-])O[C@@H]1CO[C@H]2[C@@H]1OC[C@@H]2SS[C@H]1CO[C@H]2[C@@H]1OC[C@H]2O[N+](=O)[O-] [Compound 3, 5'5'-dinitrato-2,2'ditioisosorbide] | 100 | 1.7 | 51 |  |  |  |
| CC(=O)S[C@@H]1CO[C@H]2[C@@H]1OC[C@H]2O[N+](=O)[O-] [Compound 2, 2-acetylthioisomanide 5-mononitrate] | 100 | 1.4 | 60 |  |  |  |
| CS(=O)(=O)[C@H]1CO[C@H]2[C@@H]1OC[C@H]2O[N+](=O)[O-] [Compound 5, 2-Methylsulfonylisosorbide 5-mononitrate] | 90 | 1.7 | 51 |  |  |  |
| CC(=O)S[C@H]1CO[C@H]2[C@@H]1OC[C@H]2O[N+](=O)[O-] [Compound 1, 2-acetylthioisosorbide 5-mononitrate] | 100 | 1.2 | 66 |  |  |  |
| CS[C@H]1CO[C@H]2[C@@H]1OC[C@H]2O[N+](=O)[O-] [Compound 4, 2-Methylthioisosorbide 5-mononitrate] | 100 | 1.1 | 69 |  |  |  |
| O=[N+]([O-])O[C@@H]1CO[C@H]2[C@@H]1OC[C@@H]2O [Compound 7, Isosorbide 5-mononitrate, reference compound] |  |  |  | 60 | 60 | 1.4 |
| CCC[S+]([O-])[C@H]1CO[C@H]2[C@@H]1OC[C@H]2O[N+](=O)[O-] (stereo partly drawn) [Compound 6, 2-[(R,S)-propylsulfinyl]isosorbide 5-mononitrate] | 90 | 1.1 | 69 |  |  |  |
